Experimental data reported in patent US11219623B2, “Inflammasome inhibition for the treatment of Parkinson's disease, Alzheimer's disease and multiple sclerosis” (University of Kentucky Research Foundation, priority 2015, dated 2022).
In brackets after ≈: the same amount, converted by molar mass.

What was measured:
Solubility in water = format: physicochemical; conditions: aqueous buffer; Water pH 7.2 at 37° C.
Caspase-1 [1] = experiment: iGLuc luminescence assay of ATP-induced Caspase-1 activation in J774 iGLuc cells; format: cell-based, mouse
Experimental: Caspase-1 is the enzyme at the core of the inflammasome complex and is an important danger response signal and mediator of RPE cell death in AMD. […] Importantly, there was some difference between individual compounds in terms of the dose response curve, emphasizing the need to test each compound (with unique R group(s)) individually.
To obtain the data set forth in FIGS. 64-73, an iGLuc assay was conducted (modified from Bartok et al. iGLuc: a luciferase-based inflammasome and protease activity reporter. Nature Methods 2013; 10(2):147-54). Briefly, 100,000 iGLuc cells per well were plated in a 96 well plate overnight. The next morning, media is aspirated from the plate and replaced with 75 μL of serum free DMEM with drugs (NRTIs or modified NRTIs) for 30 min. After 30 minutes of drug exposure, 20 mM ATP (25 μL) is added for a final concentration of 5 mM. 50 μL of media from each well is collected and 50 μL of coelenterazine 4.4 μM is added to each sample, and luminescence is read immediately.

IL-1 beta [2] = experiment: LPS/ATP-induced IL-1 beta secretion, mouse bone marrow-derived macrophages; format: cell-based; conditions: primary mouse bone marrow-derived macrophages
Excerpt: To determine whether LPS/ATP-induced inflammasome activation can be inhibited without RT inhibition, the present inventors utilized thymidine kinase-deficient (Raji/TK^−) and -expressing (Raji/TK^+) cells (Balzarini et al., 1989).

IL-1 beta [3] = experiment: Nigericin-induced IL-1 beta maturation, mouse bone marrow-derived macrophages; format: cell-based; conditions: 100, 250 uM
Caspase-1 [4] = experiment: Nigericin-induced Caspase-1 activation, mouse bone marrow-derived macrophages; format: cell-based; conditions: 100, 250 uM
primary human RPE cells = experiment: Extracellular potassium after Alu RNA transfection, potassium-dependent pyruvate kinase assay; format: cell-based; conditions: 6 hours
Experimental: For FIG. 18, potassium levels were determined in cell culture supernatants spectrophotometrically using a potassium-dependent pyruvate kinase assay.

mouse P2X7 receptor = biological target: T1, mouse P2X7 receptor (Mus musculus, UniProt Q9Z1M0); experiment: P2X7 cation channel function, patch clamp, HEK293 cells expressing mouse P2X7; format: cell-based; conditions: mouse P2X7 in HEK293
T1 construct: expressed in transfected cells; host or cells: HEK293 cells

HeLa cells = experiment: Cytotoxicity of Alu RNA expression plasmid (pAluA), MTS proliferation assay; format: cell-based, human; conditions: pAluA vs pUC19
Excerpt: Meanwhile, in certain embodiments, […] protects against cytotoxicity induced by plasmid expressing Alu RNA in vitro.

[5] = test system: GFP-expressing lentivirus; experiment: GFP-expressing lentivirus transduction/replication assay in HeLa cells; format: cell-based
Experimental: All drugs were added at a concentration of 10 μM. Cells were imaged for GFP expression 72 hours after addition of lentivirus. GFP-positive cells per field of view were recorded. n=4-11, error bars S.E.M. Reverse transcription of lentivirus is essential for GFP expression; modified NRTIs should not block reverse transcriptase, whereas NRTIs are known to block reverse transcriptase.
The present disclosure further provides the results of additional experiments in FIG. 21-FIG. 23.

[6] = test system: human LINE-1 retrotransposon; experiment: EGFP cell culture L1 retrotransposition assay in HeLa cells; format: cell-based; conditions: 7 days after transfection, flow cytometry
Experimental: These findings pave way for the rational re-design and improvement of nucleoside analogs as novel therapeutics. The enhanced green fluorescent protein (EGFP) cell culture L1 retrotransposition assay was performed in HeLa cells. […] Transfected cells were selected in puromycin. 7 days after transfection, cells that underwent retrotransposition (EGFP-positive) were assayed by flow cytometry. Cells were gated based on background fluorescence of plasmid JM111, which has two point mutations in L1-ORF1 that abolish retrotransposition. Data are normalized with RPS set to 1.

wild-type mice [7] = experiment: pAlu-induced RPE degeneration, mouse model of dry AMD; format: in vivo; conditions: daily oral administration
Experimental: Mouse studies were conducted to study treatment with NRTIs or derivatives.

wild-type mice [8] = experiment: Alu RNA-induced RPE degeneration, mouse model of dry AMD; conditions: co-delivered to the vitreous humor; one week after delivery
Caspase-1 [9] = experiment: LPS/ATP-induced Caspase-1 activation, mouse bone marrow-derived macrophages, western blot

T1 sequence (Q9Z1M0 whole entry): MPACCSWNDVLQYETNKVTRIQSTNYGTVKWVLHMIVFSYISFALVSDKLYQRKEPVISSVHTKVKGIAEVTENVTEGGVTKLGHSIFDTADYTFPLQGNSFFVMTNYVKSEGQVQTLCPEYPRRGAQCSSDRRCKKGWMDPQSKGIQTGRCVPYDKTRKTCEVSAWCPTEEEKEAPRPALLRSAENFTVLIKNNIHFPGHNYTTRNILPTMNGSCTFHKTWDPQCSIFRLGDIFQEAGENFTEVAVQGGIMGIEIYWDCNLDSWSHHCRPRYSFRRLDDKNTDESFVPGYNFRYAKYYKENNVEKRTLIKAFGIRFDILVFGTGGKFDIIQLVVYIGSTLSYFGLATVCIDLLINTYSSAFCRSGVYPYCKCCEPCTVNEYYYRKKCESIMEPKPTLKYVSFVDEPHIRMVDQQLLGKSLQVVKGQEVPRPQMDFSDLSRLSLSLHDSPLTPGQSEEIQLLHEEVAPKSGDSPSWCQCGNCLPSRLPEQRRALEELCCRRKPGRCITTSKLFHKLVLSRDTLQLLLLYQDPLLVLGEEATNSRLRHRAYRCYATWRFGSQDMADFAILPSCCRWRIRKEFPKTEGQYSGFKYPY

Q: What does the source list for `Cc1cn([C@H]2C=C[C@@H](CO)O2)c(=O)[nH]c1=O` [d4T, 2′3′ dideoxythymidine]?
A: solubility (Solubility in water): 106 mg/mL (≈ 473 mM); Caspase-1 cleavage (luminescence) (Caspase-1 [1]; ATP 5 mM, drug 1 nM-100 μM, N=3): reduces Caspase-1 cleavage in a dose-dependent fashion; reduction of inflammasome activation (Caspase-1 [1]; ATP (5 mM), mouse J774 iGLuc cells, FIGS. 70-73): about 35%; secretion of mature IL-1 beta upon LPS/ATP (IL-1 beta [2]): blocks secretion of mature IL-1 beta; IL-1 beta maturation (18 and 22 kDa forms) induced by nigericin (IL-1 beta [3]): inhibits IL-1 beta maturation; Caspase-1 activation (active p20 band) induced by nigericin (Caspase-1 [4]): inhibits; extracellular potassium levels after Alu RNA transfection (primary human RPE cells): reduces extracellular potassium levels; P2X7 cation channel function (mouse P2X7 receptor): did not significantly modulate P2X7 cation channel function; cell death induced by Alu overexpression (viability, MTS) (HeLa cells): prevented cell death; lentivirus replication (GFP-positive cells per field) ([5]; 10 μM, 72 hours, MOI 20): blocked lentivirus GFP expression; replication of GFP-expressing lentivirus ([5]; FIG. 22, concentration not given): blocks replication; L1 retrotransposition (EGFP-positive cells) [6]: blocked L1 retrotransposition; pAlu-induced RPE degeneration (wild-type mice [7]): blocked RPE degeneration; Alu RNA-induced RPE cell death (wild-type mice [8]): prevents Alu RNA-induced RPE cell death in a dose-dependent manner; Caspase-1 activation (active p20 band) induced by LPS/ATP (Caspase-1 [9]; 100 uM, cell culture supernatants): inhibit Caspase-1 activation; LPS/ATP-induced Caspase-1 maturation (Caspase-1 [9]; concentration not given): inhibited LPS/ATP-induced Caspase-1 maturation
